Patent JP2005255641A, “ベンゾフラン誘導体” (Kyowa Hakko Kogyo Co Ltd, priority 2004, dated 2005)

target: T1, recombinant human PDE-IV (HSPDE4A) [組み換えヒトPDE−IV (HSPDE4A)] (Homo sapiens, UniProt P27815); test: Recombinant human PDE-IV enzyme inhibition test; assay type: biochemical; conditions: drug concentration 1 μmol/L; [3H]cAMP 1 μmol/L; 30 °C, 10-30 min; DMSO 1.7%; read-out: enzyme inhibitory activity
T1 construct: made in house; host or cells: Sf9 insect cells
T1 sequence (P27815 whole entry): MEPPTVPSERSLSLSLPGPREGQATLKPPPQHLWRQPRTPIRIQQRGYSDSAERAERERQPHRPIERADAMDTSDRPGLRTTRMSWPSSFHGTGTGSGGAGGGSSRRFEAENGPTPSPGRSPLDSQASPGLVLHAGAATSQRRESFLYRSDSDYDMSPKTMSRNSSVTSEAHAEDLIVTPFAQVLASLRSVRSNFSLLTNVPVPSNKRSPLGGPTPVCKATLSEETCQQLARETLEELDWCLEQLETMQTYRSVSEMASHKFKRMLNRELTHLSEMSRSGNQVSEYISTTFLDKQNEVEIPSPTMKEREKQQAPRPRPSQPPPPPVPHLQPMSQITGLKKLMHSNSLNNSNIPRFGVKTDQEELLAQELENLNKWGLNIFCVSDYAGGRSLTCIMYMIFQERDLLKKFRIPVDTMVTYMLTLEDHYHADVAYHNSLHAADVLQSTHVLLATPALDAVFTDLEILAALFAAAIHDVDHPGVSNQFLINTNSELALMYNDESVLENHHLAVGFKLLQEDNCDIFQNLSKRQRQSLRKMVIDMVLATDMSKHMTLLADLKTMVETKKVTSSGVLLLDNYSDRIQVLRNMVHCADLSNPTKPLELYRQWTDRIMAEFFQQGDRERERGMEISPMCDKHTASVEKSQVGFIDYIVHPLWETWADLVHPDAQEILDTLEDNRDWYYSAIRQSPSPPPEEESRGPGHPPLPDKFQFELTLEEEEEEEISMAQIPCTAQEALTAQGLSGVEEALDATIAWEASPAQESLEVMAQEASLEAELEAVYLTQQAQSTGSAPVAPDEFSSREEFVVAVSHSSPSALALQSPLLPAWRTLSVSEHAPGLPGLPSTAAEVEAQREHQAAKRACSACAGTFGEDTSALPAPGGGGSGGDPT

Row | SMILES | inhibition [%]
1 | CCc1cc2c(C3(C#N)CCN(CC(=O)O)CC3)ccc(OC)c2o1 [化合物76, 2−(4−シアノ−4−(2−エチル−7−メトキシベンゾフラン−4−イル)ピペリジン−1−イル)酢酸, 0.3H2O] | ≥ 50
2 | COc1ccc(C2(C#N)CCN(CC(=O)O)CC2)c2cc(C(=O)C(C)C)oc12 [化合物91, 2−(4−シアノ−4−(2−イソブチリル−7−メトキシベンゾフラン−4−イル)ピペリジン−1−イル)酢酸] | ≥ 50
3 | CCc1ccc([C@]2(C#N)CC[C@@H](C(=O)O)CC2)c2oc(C(=O)c3ccccc3)cc12 [化合物127, シス−4−(2−ベンゾイル−4−エチルベンゾフラン−7−イル)−4−シアノシクロヘキサンカルボン酸] | ≥ 50
4 | COc1ccc([C@]2(C#N)CC[C@@H](C(=O)O)CC2)c2cc(C(C)=O)oc12 [化合物109, シス−4−(2−アセチル−7−メトキシベンゾフラン−4−イル)−4−シアノシクロヘキサンカルボン酸] | ≥ 50
5 | CC1(c2cc3c(o2)c(OC(F)F)ccc3[C@]2(C#N)CC[C@@H](C(=O)O)CC2)CC1 [化合物107, シス−4−シアノ−4−(7−ジフルオロメトキシ−2−(1−メチルシクロプロピル)ベンゾフラン−4−イル)シクロヘキサンカルボン酸] | ≥ 50
6 | COc1ccc([C@]2(C#N)CC[C@@H](C(=O)O)CC2)c2cc(C3(C(F)(F)F)CC3)oc12 [化合物104, シス−4−シアノ−4−(7−メトキシ−2−(1−トリフルオロメチルシクロプロピル)ベンゾフラン−4−イル)シクロヘキサンカルボン酸] | ≥ 50
7 | COc1ccc([C@]2(C#N)CC[C@@H](C(=O)O)CC2)c2cc(C(=O)c3ccccc3)oc12 [化合物111, シス−4−(2−ベンゾイル−7−メトキシベンゾフラン−4−イル)−4−シアノシクロヘキサンカルボン酸] | ≥ 50
8 | COc1ccc([C@]2(C#N)CC[C@@H](C(=O)O)CC2)c2cc(C(C)(C)O)oc12 [化合物110, シス−4−シアノ−4−(2−(1−ヒドロキシ−1−メチルエチル)−7−メトキシベンゾフラン−4−イル)シクロヘキサンカルボン酸] | ≥ 50
9 | N#C[C@]1(c2ccc(OC(F)F)c3oc(C4CC4)cc32)CC[C@H](C(=O)O)CC1 [化合物106, シス−4−シアノ−4−(2−シクロプロピル−7−ジフルオロメトキシベンゾフラン−4−イル)シクロヘキサンカルボン酸, 0.2H2O] | ≥ 50
10 | COc1ccc([C@]2(C#N)CC[C@@H](C(=O)O)CC2)c2cc(C3(C)CC3)oc12 [化合物103, シス−4−シアノ−4−(7−メトキシ−2−(1−メチルシクロプロピル)ベンゾフラン−4−イル)シクロヘキサンカルボン酸] | ≥ 50
11 | COc1ccc([C@]2(C#N)CC[C@@H](C(=O)O)CC2)c2cc(C(C)O)oc12 (some centres unmarked) [化合物108, シス−4−シアノ−4−(2−(1−ヒドロキシエチル)−7−メトキシベンゾフラン−4−イル)シクロヘキサンカルボン酸] | ≥ 50
12 | COc1ccc([C@]2(C#N)CC[C@@H](C(=O)O)CC2)c2cc(C(=O)c3ccncc3)oc12 [化合物112, シス−4−シアノ−4−(2−イソニコチノイル−7−メトキシベンゾフラン−4−イル)シクロヘキサンカルボン酸] | ≥ 50
13 | C=Cc1ccc([C@]2(C#N)CC[C@@H](C(=O)O)CC2)c2cc(C(=O)c3ccccc3)oc12 [化合物122, シス−4−(2−ベンゾイル−7−ビニルベンゾフラン−4−イル)−4−シアノシクロヘキサンカルボン酸, 0.4H2O] | ≥ 50
14 | COc1ccc([C@]2(C#N)CC[C@@H](C(=O)O)CC2)c2cc(C(=O)c3cc[n+]([O-])cc3)oc12 [化合物113, シス−4−シアノ−4−(2−(イソニコチノイル−1−オキシド)−7−メトキシベンゾフラン−4−イル)シクロヘキサンカルボン酸, 0.2H2O] | ≥ 50
15 | CCc1cc2c(o1)c(OC)ccc2[C@]1(C#N)CC[C@@H](C(=O)O)CC1 [化合物101, シス−4−シアノ−4−(2−エチル−7−メトキシベンゾフラン−4−イル)シクロヘキサンカルボン酸] | ≥ 50
16 | COc1ccc(C2(C#N)CCN(CC(=O)O)CC2)c2cc(C(=O)c3ccccc3)oc12 [化合物92, 2−(4−(2−ベンゾイル−7−メトキシベンゾフラン−4−イル)−4−シアノピペリジン−1−イル)酢酸] | ≥ 50
17 | COc1ccc([C@]2(C#N)CC[C@@H](C(=O)O)CC2)c2cc(C(=O)N3CCN(CCO)CC3)oc12 [化合物115, シス−4−シアノ−4−(2−(4−(2−ヒドロキシエチル)ピペラジン−1−イルカルボニル)−7−メトキシベンゾフラン−4−イル)シクロヘキサンカルボン酸 塩酸塩] | ≥ 50
18 | C=Cc1ccc([C@]2(C#N)CC[C@@H](C(=O)O)CC2)c2oc(C(=O)c3ccccc3)cc12 [化合物126, シス−4−(2−ベンゾイル−4−ビニルベンゾフラン−7−イル)−4−シアノシクロヘキサンカルボン酸] | ≥ 50
19 | COc1ccc(C2(C#N)CCN(CC(=O)O)CC2)c2cc(C#N)oc12 [化合物99, 2−(4−シアノ−4−(2−シアノ−7−メトキシベンゾフラン−4−イル)ピペリジン−1−イル)酢酸] | ≥ 50
20 | COc1ccc([C@]2(C#N)CC[C@@H](C(=O)O)CC2)c2oc(C(=O)c3ccccc3)cc12 [化合物124, シス−4−(2−ベンゾイル−4−メトキシベンゾフラン−7−イル)−4−シアノシクロヘキサンカルボン酸] | ≥ 50
21 | COc1ccc([C@]2(C#N)CC[C@@H](C(=O)O)CC2)c2cc(C(=O)N3CCN(C)CC3)oc12 [化合物114, シス−4−シアノ−4−(7−メトキシ−2−(4−メチルピペラジン−1−イルカルボニル)ベンゾフラン−4−イル)シクロヘキサンカルボン酸 塩酸塩] | ≥ 50
22 | COc1ccc(C2(C#N)CCN(CC(=O)O)CC2)c2cc(C(C)=O)oc12 [化合物90, 2−(4−(2−アセチル−7−メトキシベンゾフラン−4−イル)−4−シアノピペリジン−1−イル)酢酸] | ≥ 50
23 | COc1ccc([C@]2(C#N)CC[C@@H](C(=O)O)CC2)c2cc(C#N)oc12 [化合物121, シス−4−シアノ−4−(2−シアノ−7−メトキシベンゾフラン−4−イル)シクロヘキサンカルボン酸] | ≥ 50
24 | COC(=O)c1cc2c(C3(C#N)CCN(CC(=O)O)CC3)ccc(OC)c2o1 [化合物93, 2−(4−シアノ−4−(7−メトキシ−2−メトキシカルボニルベンゾフラン−4−イル)ピペリジン−1−イル)酢酸] | ≥ 50
25 | COc1ccc([C@]2(C#N)CC[C@@H](C(=O)O)CC2)c2cc(C(=O)N3CCC(N4CCCC4)CC3)oc12 [化合物116, シス−4−シアノ−4−(7−メトキシ−2−(4−(ピロリジン−1−イル)ピペリジノカルボニル)ベンゾフラン−4−イル)シクロヘキサンカルボン酸 塩酸塩] | ≥ 50
26 | CCc1ccc([C@]2(C#N)CC[C@@H](C(=O)O)CC2)c2cc(C(=O)c3ccccc3)oc12 [化合物123, シス−4−(2−ベンゾイル−7−エチルベンゾフラン−4−イル)−4−シアノシクロヘキサンカルボン酸] | ≥ 50

same assay, conditions: read-out: enzyme inhibitory activity

Row | SMILES | inhibition at 1 µM [%]
27 | COc1ccc(C2(C#N)CCN(CC(=O)O)CC2)c2c3c(oc12)CCCC3 [化合物100, 2−(4−シアノ−4−(6−メトキシ−1,2,3,4−テトラヒドロジベンゾフラン−9−イル)ピペリジン−1−イル)酢酸 塩酸塩] | ≥ 50
28 | N#CC1(c2ccc(OC(F)F)c3oc(C4CC4)cc23)CCN(CC(=O)O)CC1 [化合物89, 2−(4−シアノ−4−(2−シクロプロピル−7−ジフルオロメトキシベンゾフラン−4−イル)ピペリジン−1−イル)酢酸 塩酸塩] | ≥ 50
29 | COc1ccc(C2(C#N)CCN(CC(=O)O)CC2)c2cc(C3CCC3)oc12 [化合物82, 2−(4−シアノ−4−(2−シクロブチル−7−メトキシベンゾフラン−4−イル)ピペリジン−1−イル)酢酸 塩酸塩] | ≥ 50
30 | COc1ccc(C2(C#N)CCN(CC(=O)O)CC2)c2cc(C(C)(C)C)oc12 [化合物78, 2−(4−(2−tert−ブチル−7−メトキシベンゾフラン−4−イル)−4−シアノピペリジン−1−イル)酢酸 塩酸塩] | ≥ 50
31 | COc1ccc(C2(C#N)CCN(CC(=O)O)CC2)c2cc(C(C)C)oc12 [化合物77, 2−(4−シアノ−4−(2−イソプロピル−7−メトキシベンゾフラン−4−イル)ピペリジン−1−イル)酢酸 塩酸塩] | ≥ 50
32 | COc1ccc(C2(C#N)CCN(CC(=O)O)CC2)c2cc(C3CC3)oc12 [化合物83, 2−(4−シアノ−4−(2−シクロプロピル−7−メトキシベンゾフラン−4−イル)ピペリジン−1−イル)酢酸 塩酸塩] | ≥ 50
33 | COc1ccc(C2(C#N)CCN(CC(=O)O)CC2)c2cc(C3(C)CC3)oc12 [化合物87, 2−(4−シアノ−4−(7−メトキシ−2−(1−メチルシクロプロピル)ベンゾフラン−4−イル)ピペリジン−1−イル)酢酸 塩酸塩] | ≥ 50
34 | COc1ccc(C2(C#N)CCN(CC(=O)O)CC2)c2cc(Cc3ccccc3)oc12 [化合物81, 2−(4−(2−ベンジル−7−メトキシベンゾフラン−4−イル)−4−シアノピペリジン−1−イル)酢酸 塩酸塩] | ≥ 50
35 | COc1ccc(C2(C#N)CCN(CC(=O)O)CC2)c2cc(C3CC3C)oc12 (centres unmarked) [化合物84, 2−(4−シアノ−4−(7−メトキシ−2−(2−メチルシクロプロピル)ベンゾフラン−4−イル)ピペリジン−1−イル)酢酸 塩酸塩] | ≥ 50
36 | COc1ccc(C2(C#N)CCN(CC(=O)O)CC2)c2cc(CC(C)C)oc12 [化合物79, 2−(4−シアノ−4−(2−イソブチル−7−メトキシベンゾフラン−4−イル)ピペリジン−1−イル)酢酸 塩酸塩] | ≥ 50
37 | COc1ccc(C2(C#N)CCN(CC(=O)O)CC2)c2cc(C3(c4ccccc4)CC3)oc12 [化合物88, 2−(4−シアノ−4−(7−メトキシ−2−(1−フェニルシクロプロピル)ベンゾフラン−4−イル)ピペリジン−1−イル)酢酸 塩酸塩] | ≥ 50
38 | COc1ccc(C2(C#N)CCN(CC(=O)O)CC2)c2cc(CC(C)(C)C)oc12 [化合物80, 2−(4−(7−メトキシ−2−ネオペンチルベンゾフラン−4−イル)−4−シアノピペリジン−1−イル)酢酸 塩酸塩] | ≥ 50
